Laboratory results published in patent US20080227780A1, “SOLUBLE EPOXIDE HYDROLASE INHIBITORS” (Arete Therapeutics, Inc., priority 2007, published 2008).
Blank lines part the entries; values can stand above or below the molecule they belong to.

Test system: soluble epoxide hydrolase (sEH)
Test: Fluorescent assay for soluble epoxide hydrolase (CMNPC substrate), percent inhibition at the recited concentration
Assay type: biochemical
Excerpt: Fluorescent Assay for Mouse and Human Soluble Epoxide Hydrolase Recombinant mouse sEH (MsEH) and human sEH (HsEH) were produced in a baculovirus expression system as previously reported. Grant et al., J. Biol. Chem., 268:17628-17633 (1993); Beetham et al., Arch. Biochem. Biophys., 305:197-201 (1993). The expressed proteins were purified from cell lysate by affinity chromatography. Wixtrom et al., Anal. Biochem., 169:71-80 (1988). Protein concentration was quantified using the Pierce BCA assay using bovine serum albumin as the calibrating standard. The preparations were at least 97% pure as judged by SDS-PAGE and scanning densitometry. They contained no detectable esterase or glutathione transferase activity which can interfere with the assay. The assay was also evaluated with similar results in crude cell lysates or homogenate of tissues. The IC50s for each inhibitor were determined according to the following procedure: […] Jones P. D. et al.; Analytical Biochemistry 2005; 343: pp. 66-75) Bis/Tris HCl 25 mM pH 7.0 containing 0.1 mg/mL of BSA (buffer […] at 0.25 mM in DMSO. Mother solution of enzyme in buffer A (Mouse sEH at 6 μg/mL and Human sEH at 5 μg/mL). Inhibitor dissolved in DMSO at the appropriate concentration. In a black 96 well plate, fill all the wells with 150 μL of buffer A. Add 2 μL of DMSO in well A2 and A3, and then add 2 μL of inhibitor solution in A1 and A4 through A12. Add 150 μL of buffer A in row A, then mix several time and transfer 150 μL to row B. Repeat this operation up to row H. The 150 μL removed from row H is discarded. Add 20 μL of buffer A in column 1 and 2, then add 20 μL of enzyme solution to column 3 to 12. Incubate the plate for 5 minutes in the plate reader at 30° C. During incubation prepare the working solution of substrate by mixing 3.68 mL of buffer A (4×0.920 mL) with 266 μL (2×133 μL) of substrate solution). At t=0, add 30 μL of working substrate solution with multi-channel pipette labeled “Briggs 303” and start the reading ([S]final: 5 μM). Read with ex: 330 nm (20 nm) and em: 465 nm (20 nm) every 30 second for 10 minutes. The velocities are used to analyze and calculate the IC50s. Tables 1-7 above provide the percent inhibition of the enzyme when tested at the concentration recited therein.

SMILES: CC(=O)N1CCC(NC(=O)Nc2cccnc2)CC1 [Compound 6-12, 1-(1-acetylpiperidin-4-yl)-3-(pyridin-3-yl)urea]
% inh. (Inhibition Conc. 2000 nM): 40%

SMILES: CC(=O)N1CCC(NC(=O)Nc2ccccn2)CC1 [Compound 6-10, 1-(1-acetylpiperidin-4-yl)-3-(pyridin-2-yl)urea]
% inh. (Inhibition Conc. 2000 nM): 18%

SMILES: O=C(Nc1ccc(C(F)(F)F)cc1)NC1CCN(c2ccc(C(F)(F)F)cn2)CC1 [Compound 2-1]
% inh. (Inhibition Conc. 50 nM): 13%

SMILES: CC(C)(C)OC(=O)N1CCC(NC(=O)Nc2ccc(S(=O)(=O)N3CCOCC3)cc2)CC1 [Compound 5-1, tert-butyl 4-(3-(4-(morpholinosulfonyl)-phenyl)ureido)-piperidine-1-carboxylate]
% inh. (Inhibition Conc. 50 nM): 80%

SMILES: O=C(Nc1ccc(OC(F)(F)F)cc1)NC1CCN(c2ccccc2)CC1 [Compound 2-9, 1-(1-phenylpiperidin-4-yl)-3-(4-(trifluoromethoxy)phenyl)urea]
% inh. (Inhibition Conc. 2000 nM): 99%

SMILES: NS(=O)(=O)c1cccc(C(=O)N2CCC(NC(=O)Nc3ccc(C(F)(F)F)cc3)CC2)c1 [Compound 4-6, 3-(4-(3-(4-(trifluoromethyl)phenyl)ureido)piperidine-1-carbonyl)benzene-sulfonamide]
% inh. (Inhibition Conc. 50 nM): 99%

SMILES: CC(C)(C)OC(=O)N1CCC(NC(=O)Nc2ccc3cc[nH]c3c2)CC1 [Compound 6-2, tert-butyl 4-(3-1H-indol-6-yl-ureido)piperidine-1-carboxylate]
% inh. (Inhibition Conc. 500 nM): 87%

SMILES: CC(=O)N1CCC(NC(=O)Nc2ccc(-c3nnn[nH]3)cc2)CC1 [Compound 6-9, 1-(4-(1H-tetrazol-5-yl)phenyl)-3-(1-acetylpiperidin-4-yl)urea]
% inh. (Inhibition Conc. 5000 nM): 84%

SMILES: CC(=O)N1CCC(NC(=O)NC23CC4(F)CC(F)(CC(F)(C4)C2)C3)CC1 [Compound 3-1, 1-(1-acetylpiperidin-4-yl)-3-(3,5,7-trifluoroadamant-1-yl)urea]
% inh. (Inhibition Conc. 500 nM): 70%

SMILES: CC(C)(C)OC(=O)N1CCC(NC(=O)Nc2ccc(-c3nnn[nH]3)cc2)CC1 [Compound 6-8, tert-butyl 4-(3-(4-(1H-tetrazol-5-yl)phenyl)-ureido)piperidine-1-carboxylate]
% inh. (Inhibition Conc. 500 nM): 93%

SMILES: CC(C)(C)OC(=O)N1CCC(NC(=O)Nc2ccc3ncccc3c2)CC1 [Compound 6-1, tert-butyl 4-(3-quinolin-6-yl-ureido)piperidine-1-carboxylate]
% inh. (Inhibition Conc. 50 nM): 86%

SMILES: CC(=O)N1CCC(NC(=O)Nc2ccc3c(c2)CCC3)CC1 [Compound 6-6, 1-(1-acetyl-piperidin-4-yl)-3-(2,3-dihydro-1H-inden-5-yl)urea]
% inh. (Inhibition Conc. 500 nM): 93%

SMILES: CC(=O)N1CCC(NC(=O)NC23CC4CC(C2)C(O)C(C4)C3)CC1 (single isomer, unassigned) [Compound 3-8]
% inh. (Inhibition Conc. 5000 nM): 76%

SMILES: CC(=O)N1CCC(NC(=O)NC23CC4CC(C2)C(O)C(C4)C3)CC1 (single isomer, unassigned) [Compound 3-7]
% inh. (Inhibition Conc. 5000 nM): 81%

SMILES: CC(=O)N1CCC(NC(=O)NC23CC4CC(C2)C(F)(F)C(C4)C3)CC1 [Compound 3-10, 1-(1-acetylpiperidin-4-yl)-3-(4,4-difluoroadamantyl)urea]
% inh. (Inhibition Conc. 200 nM): 76%

SMILES: CC(=O)N1CCC(NC(=O)Nc2ccc3ncccc3c2)CC1 [Compound 6-4, 1-(1-acetylpiperidin-4-yl)-3-(quinolin-6-yl)urea]
% inh. (Inhibition Conc. 500 nM): 70%

SMILES: COc1ccc(NC(=O)NC2CCN(C(=O)C(C)(C)C)CC2)cn1 [Compound 6-13, 1-(6-methoxypyridin-3-yl)-3-(1-pivaloylpiperidin-4-yl)urea]
% inh. (Inhibition Conc. 2000 nM): 97%

SMILES: COc1ccc(NC(=O)NC2CCN(C(C)=O)CC2)cn1 [Compound 6-11, 1-(1-acetylpiperidin-4-yl)-3-(6-methoxypyridin-3-yl)urea]
% inh. (Inhibition Conc. 2000 nM): 44%

Further lines, results first:

% inh. (Inhibition Conc. 50 nM): 82%
SMILES: O=C(NC1CCCCC1)NC1CCN(C(=O)c2ccccn2)CC1 [Compound 7-40, 1-cyclohexyl-3-(1-picolinoylpiperidin-4-yl)urea]

% inh. (Inhibition Conc. 2000 nM): 23%
SMILES: CC(=O)N1CCC(NC(=O)NC2CCOCC2)CC1 [Compound 8-4, 1-(1-acetylpiperidin-4-yl)-3-(tetrahydro-2H-pyran-4-yl)urea]

% inh. (Inhibition Conc. 50 nM): 91%
SMILES: Cc1c(Cl)cccc1S(=O)(=O)N1CCC(NC(=O)NC23CC4CC(CC(C4)C2)C3)CC1 [Compound 7-34, 1-(1-(3-chloro-2-methylphenylsulfonyl)piperidin-4-yl)-3-adamantylurea]

% inh. (Inhibition Conc. 200 nM): 96%
SMILES: CC(C)(C)CC(=O)N1CCC(NC(=O)NC23CC4CC(CC(C4)C2)C3)CC1 [Compound 7-72, 1-adamantyl-3-(1-(3,3-dimethylbutanoyl)piperidin-4-yl)urea]

% inh. (Inhibition Conc. 200 nM): 98%
SMILES: O=C(Nc1ccc(OC(F)(F)F)cc1)NC1CCN(C(=O)N2CCOCC2)CC1 [Compound 7-79, 1-(1-(morpholine-4-carbonyl)piperidin-4-yl)-3-(4-(trifluoromethoxy)phenyl)urea]

% inh. (Inhibition Conc. 200 nM): 86%
SMILES: O=C(NC1CCN(C(=O)CCO)CC1)NC12CC3CC(CC(C3)C1)C2 [Compound 7-59, 1-adamantyl-3-(1-(3-hydroxypropanoyl)piperidin-4-yl)urea]

% inh. (Inhibition Conc. 50 nM): 70%
SMILES: CC(=O)N1CCC(NC(=O)NC2CCC(C)(C)CC2)CC1 [Compound 7-6, 1-(1-acetylpiperidin-4-yl)-3-(4,4-dimethylcyclo-hexyl)urea]

% inh. (Inhibition Conc. 200 nM): 95%
SMILES: CC(C)(C)S(=O)(=O)N1CCC(NC(=O)NC23CC4CC(CC(C4)C2)C3)CC1 [Compound 7-78, 1-(1-(tert-butylsulfonyl)piperidin-4-yl)-3-adamantylurea]

% inh. (Inhibition Conc. 50 nM): 96%
SMILES: O=C(NC1CCN(S(=O)(=O)c2ccc(-c3ccccc3)cc2)CC1)NC12CC3CC(CC(C3)C1)C2 [Compound 7-24, 1-(1-(biphenyl-4-ylsulfonyl)piperidin-4-yl)-3-adamantylurea]

% inh. (Inhibition Conc. 2000 nM): 17%
SMILES: CC(=O)N1CCC(NC(=O)Nc2ccc(C(=O)O)cc2)CC1 [Compound 7-53, 4-(3-(1-acetylpiperidin-4-yl)ureido)benzoic acid]

% inh. (Inhibition Conc. 5000 nM): 94%
SMILES: CCCOc1ccc(NC(=O)NC2CCN(C(C)=O)CC2)cc1 [Compound 7-11, 1-(1-acetylpiperidin-4-yl)-3-(4-propoxyphenyl)urea]

% inh. (Inhibition Conc. 200 nM): 86%
SMILES: O=C(NC1CCN(C(=O)NC23CC4CC(CC(C4)C2)C3)CC1)NC12CC3CC(CC(C3)C1)C2 [Compound 7-56, N-adamantyl-4-(3-adamantylureido)piperidine-1-carboxamide]

% inh. (Inhibition Conc. 2000 nM): 100%
SMILES: CC(=O)N1CCC(NC(=O)NC2CCC3(CCCC3)CC2)CC1 [Compound 7-83, 1-(1-acetylpiperidin-4-yl)-3-(spiro[4.5]decan-8-yl)urea]

% inh. (Inhibition Conc. 2000 nM): 90%
SMILES: CC(C)(C)C(=O)N1CCC(NC(=O)Nc2ccc(S(C)(=O)=O)cc2)CC1 [Compound 7-70, 1-(4-(methylsulfonyl)phenyl)-3-(1-pivaloylpiperidin-4-yl)urea]

% inh. (Inhibition Conc. 50 nM): 92%
SMILES: CS(=O)(=O)c1ccc(S(=O)(=O)N2CCC(NC(=O)NC34CC5CC(CC(C5)C3)C4)CC2)cc1 [Compound 7-41, 1-adamantyl-3-(1-(4-(methylsulfonyl)phenylsulfonyl)piperidin-4-yl)urea]

% inh. (Inhibition Conc. 200 nM): 100%
SMILES: CC(C)(C)OC(=O)N1CCC(NC(=O)NC2CCCCCC2)CC1 [Compound 7-48, tert-butyl 4-(3-cycloheptylureido)piperidine-1-carboxylate]

% inh. (Inhibition Conc. 50 nM): 81%
SMILES: O=C(NC1CCCCC1)NC1CCN(S(=O)(=O)c2cccc(C(F)(F)F)c2)CC1 [Compound 7-44, 1-cyclohexyl-3-(1-(3-(trifluoromethyl)phenylsulfonyl)piperidin-4-yl)urea]

% inh. (Inhibition Conc. 50 nM): 99%
SMILES: CC(C)OC(=O)N1CCC(NC(=O)Nc2ccc(OC(F)(F)F)cc2)CC1 [Compound 7-22, isopropyl 4-(3-(4-(trifluoromethoxy)phenyl)ureido)piperidine-1-carboxylate]

% inh. (Inhibition Conc. 50 nM): 97%
SMILES: CC(C)(C)C(=O)N1CCC(NC(=O)Nc2ccc(OC(F)(F)F)cc2)CC1 [Compound 7-19, 1-(1-pivaloylpiperidin-4-yl)-3-(4-(trifluoro-methoxy)phenyl)urea]

% inh. (Inhibition Conc. 2000 nM): 86%
SMILES: CC(=O)N1CCC(NC(=O)NC2CCN(C(=O)OC(C)(C)C)CC2)CC1 [Compound 8-2, tert-butyl 4-(3-(1-acetylpiperidin-4-yl)ureido)piperidine-1-carboxylate]

% inh. (Inhibition Conc. 2000 nM): 0%
SMILES: CC(=O)N1CCC(NC(=O)NC2CCN(C)CC2)CC1 [Compound 8-3, 1-(1-acetylpiperidin-4-yl)-3-(1-methylpiperidin-4-yl)urea]

% inh. (Inhibition Conc. 50 nM): 94%
SMILES: O=C(NC1CCN(S(=O)(=O)c2cccs2)CC1)NC12CC3CC(CC(C3)C1)C2 [Compound 7-28, 1-adamantyl-3-(1-(thiophen-2-ylsulfonyl)piperidin-4-yl)urea]
